In ChEMBL document CHEMBL5543158, “Design of Evodiamine-Glucose Conjugates with Improved In Vivo Antitumor Activity” (J Med Chem, 2024):
In brackets after ≈: the same amount, converted by molar mass.

How the values were obtained:
U-87 MG = experiment: Antiproliferative activity against human U-87 MG cells measured after 72 hrs by CCK-8 cells; type: functional, cell-based, U-87MG ATCC
[1] = Solubility of the compound in double distilled water measured upto 30 mins by UV-vis spectrophotometry; type: physicochemical
HCT-116 = experiment: Antiproliferative activity against human HCT116 cells measured after 72 hrs by CCK-8 cells; type: functional, cell-based; details: HCT-116, 72 h
A549 = experiment: Antiproliferative activity against human A549 cells measured after 72 hrs by CCK-8 cells; type: functional, cell-based; details: A549, 72 h

IC50 (U-87 MG): 54 nM
solubility at 0.5 h [1]: 2470 µg/mL (≈ 3.68 mM)
IC50 (HCT-116): 54 nM
IC50 (A549): 54 nM
Compound: CN1c2ccc(F)cc2C(=O)N2CCc3c([nH]c4ccc(OC(=O)CCCC(=O)NCCCO[C@@H]5O[C@H](CO)[C@@H](O)[C@H](O)[C@H]5O)cc34)[C@H]21
